Where two headings read alike, the source gives them in different places.
Key:
Poliovirus 1 = experiment: microbe, parasite or virus in culture; assay type: cell-based; conditions: read-out: EC50 PV1
Rabies = assay type: cell-based, rabies virus
Echovirus 7 = experiment: microbe, parasite or virus in culture; assay type: cell-based; conditions: read-out: EC50 ECHO07
Venezuelan Encephalitis = assay type: cell-based, Venezuelan encephalitis virus
Coxsackievirus B1 = experiment: microbe, parasite or virus in culture; assay type: cell-based; conditions: read-out: EC50 CVB1
SARS Coronavirus = assay type: cell-based
Chikungunya = assay type: cell-based, chikungunya virus
Echovirus 25 = experiment: microbe, parasite or virus in culture; assay type: cell-based; conditions: read-out: EC50 ECHO25
Echovirus 6 = experiment: microbe, parasite or virus in culture; assay type: cell-based; conditions: read-out: EC50 ECHO06
[1] = tested on: Enterovirus D68/US/KY/14-18953; experiment: Antiviral assay, Enterovirus D68 strain US/KY/14-18953 in RD cells; assay type: cell-based
BHK-21 = conditions: read-out: CC50 (Rabies test)
Rift Valley virus = experiment: organism not typed; assay type: cell-based; conditions: read-out: EC50 Rift Valley virus
Echovirus 30 = experiment: microbe, parasite or virus in culture; assay type: cell-based; conditions: read-out: EC50 ECHO30
Punta Toro virus = experiment: microbe, parasite or virus in culture; assay type: cell-based; conditions: read-out: EC50 Punta Toro virus
[2] = tested on: Enterovirus D68/US/Mo/14-18949; experiment: Antiviral assay, Enterovirus D68 strain US/Mo/14-18949 in RD cells; assay type: cell-based
Vero = conditions: read-out: CC50 (Yellow Fever Virus test)
Coxsackievirus A9 = experiment: microbe, parasite or virus in culture; assay type: cell-based; conditions: read-out: EC50 COX A9
Coxsackievirus B5 = experiment: microbe, parasite or virus in culture; assay type: cell-based; conditions: read-out: EC50 CVB5
Influenza A H1N1 = experiment: microbe, parasite or virus in culture; assay type: cell-based; conditions: read-out: EC50 Influenza A H1N1
Echovirus 9 = experiment: microbe, parasite or virus in culture; assay type: cell-based; conditions: read-out: EC50 ECHO09
Poliovirus 3 = experiment: microbe, parasite or virus in culture; assay type: cell-based; conditions: read-out: EC50 PV3
Coxsackievirus B3-H3 = experiment: microbe, parasite or virus in culture; assay type: cell-based; conditions: read-out: EC50 CVB3-H3
Measles = experiment: microbe, parasite or virus in culture; assay type: cell-based; conditions: read-out: EC50 Measles
[3] = tested on: RSV (resp syncitial virus); experiment: microbe, parasite or virus in culture; assay type: cell-based; conditions: read-out: EC50 RSV
BHK = conditions: read-out: CC50 (Powassan test)
Japanese Encephalitis = assay type: cell-based
Powassan = assay type: cell-based, Powassan virus
Enterovirus D68/Fermon = experiment: Antiviral assay, Enterovirus D68 strain Fermon in RD cells; assay type: cell-based
Coxsackievirus B4 = experiment: microbe, parasite or virus in culture; assay type: cell-based; conditions: read-out: EC50 CVB4
Coxsackievirus B2 = experiment: microbe, parasite or virus in culture; assay type: cell-based; conditions: read-out: EC50 CVB2
Yellow Fever Virus = experiment: microbe, parasite or virus in culture; assay type: cell-based; conditions: read-out: EC50 Yellow Fever Virus
Enterovirus 71 = experiment: microbe, parasite or virus in culture; assay type: cell-based; conditions: read-out: EC50 EV71
Echovirus 11 = experiment: microbe, parasite or virus in culture; assay type: cell-based; conditions: read-out: EC50 ECHO11
[4] = read-out: CC50 (Rift Valley virus test), with Rift Valley virus MP-12 test
[5] = read-out: CC50 (SARS Coronavirus test), with SARS Coronavirus Urbani test

Row | Structure (SMILES) | EC50 (Poliovirus 1) [µM] | EC50 (Echovirus 7) [µM] | EC50 (Coxsackievirus B1) [µM] | CC50 (RD cells) [µM] | EC50 (Echovirus 25) [µM] | EC50 (Echovirus 6) [µM] | EC50 [1] [µM] | EC50 (Echovirus 30) [µM] | EC50 [2] [µM] | EC50 (Coxsackievirus A9) [µM] | EC50 (Coxsackievirus B5) [µM] | EC50 (Echovirus 9) [µM] | EC50 (Poliovirus 3) [µM] | EC50 (Coxsackievirus B3-H3) [µM] | CC50 (LLC cells) [µM] | EC50 (Coxsackievirus B4) [µM] | CC50 (HeLa-RW cells) [µM] | EC50 (Coxsackievirus B2) [µM] | EC50 (Enterovirus 71) [µM] | EC50 (Echovirus 11) [µM] | further results
1 | CC(C)n1ncc2c(C(=O)Nc3ccc(F)cc3)cc(-c3cccs3)nc21 [JX-017] | > 25 | 1.3 ± 0.2 | 0.9 ± 0.3 | > 200 | 1.2 | 1 ± 0.4 | 0.5 ± 0.17 | 0.5 | 0.35 ± 0.06 | 0.9 ± 0.5 | 1 ± 0.1 | 0.6 | > 25 | 0.7 ± 0.2 | > 200 | 0.8 | > 200 | 1 ± 0.3 | 0.9 ± 0.3 | – | EC50 (Rabies): > 100 µM; EC50 (Venezuelan Encephalitis): 0.32 µM; EC50 (SARS Coronavirus): > 10 µM; EC50 (Chikungunya): 0.29 µM; CC50 (BHK-21): > 100 µM; CC50 (Vero 76; [4]): 52 µM; CC50 (Vero 76; [5]): 10 µM; EC50 (Rift Valley virus): > 52 µM; EC50 (Punta Toro virus): 12 µM; CC50 (Vero): 9.9 µM; EC50 (Influenza A H1N1): > 100 µM; CC50 (MA-104): > 100 µM; EC50 (Measles): 8.9 µM; EC50 [3]: 69 µM; CC50 (BHK): 37 µM; CC50 (MDCK): > 100 µM; EC50 (Japanese Encephalitis): > 0.43 µM; EC50 (Powassan): 32 µM; EC50 (Enterovirus D68/Fermon): 0.33 ± 0.06 µM; EC50 (Yellow Fever Virus): > 9.9 µM
2 | CC(C)n1ncc2c(C(=O)Nc3ccc(F)cc3)cc(-c3ccsc3)nc21 [JX-030] | > 25 | 2.6 ± 0.1 | 1.6 ± 0.1 | 25 | 0.9 | 1.2 ± 0.1 | 0.6 | 0.6 | 0.3 | 1.7 ± 0.1 | 1.2 ± 0.1 | 1.9 | > 25 | 1.3 ± 0.1 | > 100 | 2.2 ± 0.1 | 25 | 1.6 ± 0.1 | 1.4 ± 0.2 | – | EC50 (Rabies): 88.4 µM; EC50 (Venezuelan Encephalitis): > 9.4 µM; EC50 (SARS Coronavirus): 4.4 µM; EC50 (Chikungunya): > 1.3 µM; CC50 (BHK-21): > 260 µM; CC50 (Vero 76; [4]): 169 µM; CC50 (Vero 76; [5]): 18.7 µM; EC50 (Rift Valley virus): 140 µM; EC50 (Punta Toro virus): > 78 µM; CC50 (Vero): 11.1 µM; EC50 (Influenza A H1N1): 10.7 µM; CC50 (MA-104): 67.6 µM; EC50 (Measles): 20.5 µM; EC50 [3]: 7 µM; CC50 (BHK): > 85.8 µM; CC50 (MDCK): 17.7 µM; EC50 (Japanese Encephalitis): 3.4 µM; EC50 (Powassan): > 85.8 µM; EC50 (Yellow Fever Virus): > 11.1 µM
3 | CC(C)n1ncc2c(C(=O)Nc3ccccn3)cc(-c3cccs3)nc21 [JX-040] | > 10 | 0.6 | 0.6 | > 200 | 0.6 | 0.4 | 0.27 ± 0.06 | < 0.4 | 0.17 ± 0.03 | 0.6 | 0.6 | – | > 10 | 0.6 | > 200 | 0.5 | > 200 | 0.6 | 0.5 ± 0.1 | 0.5 | –
4 | CC(C)n1ncc2c(C(=O)Nc3ncccn3)cc(-c3cccs3)nc21 [JX-041] | > 10 | 0.7 | 0.6 | – | 0.6 | 0.4 | – | < 0.4 | – | 0.6 | 0.6 | – | > 10 | 0.6 | 75 | 0.6 | 37.5 | 0.6 | 0.5 ± 0.1 | 0.6 | –
5 | CC(C)n1ncc2c(C(=S)Nc3ccc(F)cc3)cc(-c3cccs3)nc21 [JX-046] | – | > 10 | – | – | > 10 | > 10 | – | 6.25 | – | > 10 | – | > 10 | – | – | 20 | – | – | – | > 10 | > 10 | –
6 | CC(C)n1ncc2c(C(=O)Nc3cccc(S(=O)(=O)N(C)C)c3)cc(-c3cccs3)nc21 [JX-052] | > 10 | 0.78 | 1.2 | > 200 | – | – | 0.53 ± 0.29 | 0.4 | 0.31 ± 0.07 | 0.8 | 1.2 | 0.2 | > 10 | 1.2 | > 200 | 1.2 | 12 | 1.2 | 0.8 ± 0.1 | 0.6 | EC50 (Enterovirus D68/Fermon): 0.57 ± 0.25 µM
7 | CNS(=O)(=O)c1cccc(NC(=O)c2cc(-c3cccs3)nc3c2cnn3C(C)C)c1 [JX-053] | > 10 | 0.45 | 0.6 | – | – | – | – | 0.6 | – | 0.8 | 0.6 | 0.2 | > 10 | 0.6 | 25 | 0.6 | 12 | 0.6 | 0.7 ± 0.1 | 0.6 | –
8 | CC(C)n1ncc2c(C(=O)Nc3cccnc3)cc(-c3cccs3)nc21 [JX-056] | 10 | 0.45 | 0.6 | 25 | – | – | 0.12 | 0.3 | < 0.1 | 0.6 | 0.6 | 0.2 | 10 | 0.6 | > 200 | 0.6 | 25 | 0.6 | 0.5 ± 0.1 | 0.2 | EC50 (Enterovirus D68/Fermon): < 0.1 µM
9 | CC(C)n1ncc2c(C(=O)Nc3ccccn3)cc(-c3ccsc3)nc21 [JX-057] | > 10 | – | 1.2 | – | – | – | – | – | – | – | 1.2 | 0.4 | > 10 | 1.2 | 25 | 1.2 | 18 | 1.2 | 0.8 | 1.2 | –
10 | CC(C)n1ncc2c(C(=O)Nc3ncccn3)cc(-c3ccsc3)nc21 [JX-058] | > 10 | – | 1.2 | – | – | – | – | – | – | – | 1.2 | 0.6 | > 10 | 1.2 | 50 | 1.2 | 40 | 1.2 | 1.2 | 1.3 | –
11 | CC(C)n1ncc2c(C(=O)Nc3ccncn3)cc(-c3ccsc3)nc21 [JX-059] | > 10 | – | 1.2 | 75 | – | – | 0.87 ± 0.31 | – | 0.57 ± 0.22 | – | 1.2 | 0.4 | > 10 | 1.2 | > 200 | 1.2 | > 200 | 1.2 | 0.8 | 1.2 | EC50 (Enterovirus D68/Fermon): 0.69 ± 0.09 µM
12 | CC(C)n1ncc2c(C(=O)N(C)c3ccccn3)cc(-c3cccs3)nc21 [JX-074] | > 10 | > 10 | > 10 | – | > 10 | > 10 | – | > 10 | – | > 10 | > 10 | > 10 | > 10 | > 10 | – | > 10 | – | > 10 | > 10 | > 10 | –

Reference: patent US11787799B2 (priority 2015, dated 2023)
